According to patent US20030138946A1:
Where “and” joins values, the source holds several entries; their conditions need not be identical. Equal entries are not always repeated. Ends that are not written are not given here.

Key:
[1] = target: L^d molecules complexed with QL9 peptide, on the cell surface (mouse) (UniProt P01887)
[2] = target: recombinant biotinylated L^d immobilized on an avidin-coated support, with QL9 peptide (mouse) (UniProt P01897)
[3] = target: L^d molecules complexed with QL9 peptide, on the cell surface (mouse) (UniProt P01887); test: cell-based or functional assay
[4] = target: L^d molecules complexed with p2Ca peptide, on transfected Drosophila S2 cells (mouse) (UniProt P01887); test: cell-based or functional assay
Chain of L^d molecules complexed with p2Ca peptide, on transfected Drosophila S2 cells (mouse) (P01897 25-362, one chain of several): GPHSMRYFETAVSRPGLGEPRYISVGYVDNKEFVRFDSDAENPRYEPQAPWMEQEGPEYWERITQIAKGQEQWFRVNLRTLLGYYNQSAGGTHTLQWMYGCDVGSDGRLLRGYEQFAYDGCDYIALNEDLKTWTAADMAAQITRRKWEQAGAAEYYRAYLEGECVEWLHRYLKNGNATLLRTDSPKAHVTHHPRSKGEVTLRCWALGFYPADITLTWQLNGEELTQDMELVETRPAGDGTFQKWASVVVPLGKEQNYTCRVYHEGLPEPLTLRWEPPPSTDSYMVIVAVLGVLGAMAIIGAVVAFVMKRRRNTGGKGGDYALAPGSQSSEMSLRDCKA

[5] = target: T1, K^bsol (soluble H-2 K^b with murine β-2 microglobulin) (Mus musculus, UniProt P01901); format: binding
T1 construct: The cDNAs encoding K^b α1α2α3 domains (274 residues) and murine β-2 microglobulin (99 residues); made in house; host or cells: Drosophila S2/M3 cells, purified from culture supernatant
T1 sequence (P01901 22-295): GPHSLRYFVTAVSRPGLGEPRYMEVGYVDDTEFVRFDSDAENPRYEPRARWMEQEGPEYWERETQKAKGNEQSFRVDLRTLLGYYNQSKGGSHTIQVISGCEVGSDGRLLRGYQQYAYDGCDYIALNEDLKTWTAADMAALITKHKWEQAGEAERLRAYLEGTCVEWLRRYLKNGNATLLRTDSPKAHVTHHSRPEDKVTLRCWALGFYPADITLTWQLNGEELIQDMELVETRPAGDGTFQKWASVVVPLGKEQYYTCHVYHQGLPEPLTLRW
T1 sequence (P01887 21-119 partner): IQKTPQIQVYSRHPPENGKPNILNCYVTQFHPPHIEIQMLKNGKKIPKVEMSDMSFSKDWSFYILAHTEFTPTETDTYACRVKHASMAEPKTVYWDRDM

[6] = tested on: B3/CD8 T-cell hybridoma; test: Antigen presentation assay with B3/CD8 T-cell hybridoma (IL-2 via CTLL 3H thymidine); format: cell-based, murine; conditions: peptide added to culture medium or protein osmotically loaded
Protocol: Osmotic loading of SC2 and 3T3 cells with ovalbumin protein was carried out as described by Moore, et al., Cell 54: 777-785 (1988). The assay procedure is as follows. In a 96-well dish, 1×10^5 Drosophila cells (with or without peptide/protein loaded) or 3T3 cells were cocultured with 1×10^5 B3/CD8 T-cell hybridoma cells in 200 μl of RPMI media supplemented with 10% fetal bovine serum. After 24 hours of incubation, 100 μl of the supernatant from these cultures was added to 100 μl of RPMI containing 5,000 CTLL cells. The cells were cocultured for 24 hours at 37° C. when 1 uCi of ^3H thymidine (Amersham) was added. After a further incubation of 15 hours at 37° C., the incorporation of radiolabel into the CTLL cells was determined by scintillation counting.
Assays conducted with murine MHC also verified that the insect cells are capable of loading peptide onto the Class I molecules. Cells expressing as few as 200-500 MHC molecules containing a particular antigen can be detected by a T-cell. […] Upon antigenic stimulation, B3/CD8 produces IL-2, measured by ^3H thymidine incorporation in IL-2-dependent T-cell line CTLL (Gillis, et al., J. Immunol. 120: 2027 91978)). Thus, by measuring the amount of IL-2 produced, one can assay for T-cell recognition. […]

[7] = tested on: HLA B27; test: Peptide-induced thermostabilization of HLA B27 on Drosophila cells (W6/32 cytofluorimetry); format: cell-based, human
Protocol: Twenty-four hours prior to FACS analysis, CuSO4 is added to the stably transfected S2 cells (3-4×10^6 cells/ml) to a final concentration of 1 mM, thereby “switching on” expression from the transfected genes. Cells are plated out in 24-well cluster dishes (2 ml per well). Eight hours prior to FACS analysis, the CuSO4 medium is replaced with fresh medium (1 ml) with or without peptide at a concentration of 50 μg/ml. 37° C. temperature challenges are carried out by transferring the dishes onto a flat surface in a 37° C. room at various time intervals prior to harvesting the cells for analysis.
To analyze surface expression of Class I MHC on the S2 cells, aliquots of cells (5×10^5) are transferred into tubes on ice, collected by centrifugation (1,000×g for 4 minutes), resuspended in 3 ml of PBS/1% BSA, 0.02% sodium azide, collected by centrifugation and resuspended in PBS/BSA (0.5 ml) containing the appropriate primary antibody (ascites fluids Y3, 28:14:8S, 30.5.7, W6/32, diluted 1:200). Rabbit antisera are diluted 1:500 and B22.293 hybridoma supernatant is used directly. After a one hour incubation on ice, cells are washed twice in 3 ml of PBS/BSA and resuspended in 0.5 ml of PBS/BSA containing FITC labeled secondary antibody (Cappell, Durham, N.C.) and 1 ng/ml propidium iodide. […] Samples are then analyzed by FACS 440 (Becton Dickinson). […]

[8] = tested on: CD8^+ 2C lymph node cells; test: Primary proliferative response of CD8+ 2C lymph node cells to peptides presented by transfected fly cells (3HTdR); format: cell-based, mouse; conditions: peptide 10 μM
Protocol: (§1) Using a standard tissue culture system (Cai, Z. and Sprent, J. (1994) J. Exp. Med. 179: 2005-2015), doses of 5×10^4 purified CD8^+ 2C lymph node (LN) cells were cultured at 37° C. with doses of 3×10^5 transfected fly cells ±peptides (10 μM final concentration). Peptides were synthesized by R. W. Johnson Pharmaceutical Research Institute (Sykulev, et al. (1994) Immunity 1: 15-22. Proliferative responses were measured by adding ^3HTdR (1 μCi/well) 8 hours prior to harvest. IL-2 production was measured by removing supernatants from the cultures at 48 hours and adding 50 μl supernatant to an IL-2 responsive indicator cell line (CTLL); proliferation of the indicator line was measured by addition of ^3HTdR. The data shown in Table 2 are the means of triplicate cultures. The transfected Drosophila S2 cells die rapidly at 37° C. and fail to incorporate ^3HTdR at this temperature.

[9] = tested on: CD8^+ 2C lymph node cells; test: IL-2 production by CD8+ 2C lymph node cells (CTLL indicator line 3HTdR); format: cell-based, mouse; conditions: peptide 10 μM
Protocol: as §1

[10] = tested on: CD8^+ 2C cells; test: CD69 and CD25 expression on CD8+ 2C cells stimulated with transfected Drosophila cells plus peptide; format: cell-based, mouse; conditions: Drosophila cells expressing L^d alone; peptide 10 μM, 12 hours
Protocol: TCR stimulation elicited a complex pattern of intracellular events which lead to early up-regulation of CD69 and CD25 (IL-2 receptor or IL-2R) on the cell surface. These changes are apparent within a few hours of stimulation and are followed by cytokine synthesis and cell proliferation. Drosophila cells were transfected with genes for L^d, L^d and B7.1 (L^d.B7), L^d and ICAM-1 (L^d.ICAM) or L^d, B7.1 and ICAM-1 (L^d.B7.1CAM). […] Purified CD8^+ 2C cells were incubated with various Drosophila cells plus a peptide (either p2Ca or QL9, 10 μM) in bulk (2 ml) culture for 12 hours and then stained for CD69 or CD25. Either p2Ca or QL9 presented by Drosophila cells transfected with L^d.B7, L^d.ICAM or L^d.B7.1CAM were effective in stimulating the up-regulation of CD69 and CD25.

[11] = tested on: CD8^+ 2C cells; test: Dose-response of day 3 proliferation of CD8+ 2C cells to peptides on transfected Drosophila APC; format: cell-based, mouse
Protocol: Responses to p2Ca (above) and QL9 (below) were measured by culturing 5×10^4 purified CD8^+ 2C cells with 2×10^5 Drosophila cells in the presence or absence of the indicated concentrations of peptides for 3 days. [^3H] TdR was added during the last 8 hours of culture; rIL-2 was added at a final concentration of 20 units/ml. The data are the mean of triplicate cultures. When supplemented with exogenous IL-2, however, both peptides stimulated significant proliferative responses at high doses (10 μM). The proliferative responses elicited by QL9 were far stronger than for p2Ca (note the large difference between the scales of x-axes of the upper and the lower panel).
Dose-response relationships for proliferation on day 3 elicited by Drosophila cells transfected with L^d.B7.1CAM and presenting p2Ca peptide were compared to those elicited by Drosophila cells transfected with L^d.B7, L^d.ICAM or L^d.B7.1CAM presenting QL9 peptide. Drosophila APC (2×10^5 cells) were cultured with 5×10^4 CD8^+ 2C cells for three days in the presence or absence of peptides. [^3H] TdR was added during the last 8 hours of culture; no IL-2 was added to the cultures.

[12] = tested on: 2C+ T-cells; format: cell-based, mouse
[13] = tested on: 2C+ T-cells; test: Enrichment of 2C+ T-cells from a 1/99 mixture with C57BL/6 CD8+ cells (1B2 staining, flow cytofluorometry); format: cell-based, mouse
Protocol: 2C+ T-cells were mixed with total CD8^+ cells from C57BL/6 mice at a 1/99 ratio and cells were cultured with immobilized L^d and anti-CD28 antibody in the presence of peptide QL9. IL-2 was added at day 2 of culture, and subsequently every other day. Cell activation and proliferation was noted, as evidenced by the formation of clumps, presence of enlarged cells that progressively spread in the well. At day 12 of culture, cells were harvested and percentage of cells expressing the 2C T-cell receptor was assessed by staining with the anticlonotypic antibody 1B2 and analysis by flow cytofluorometry: 43% of the cells cultured initially in the presence of peptide QL9 were 2C+, (FIG. 22) whereas 49% of the cells expressed 2C after stimulation with peptide p2Ca (FIG. 23), and 22% with peptide SL9 (FIG. 24). […] Enrichment was observed even with SL9, a peptide that makes a low affinity complex with the 2C T-cell receptor. This method thus can specifically activate and enrich a small subpopulation of antigen specific T-cells out of a heterogenous mixture of T-cells.

[14] = target: T2, soluble H-2 K^b (K^bsol): heterodimer of truncated K^b heavy chain and murine β-2 microglobulin, purified from Drosophila cells (murine), P01901
T2 chain 1: T1 sequence (P01901 22-295)
T2 chain 2: T1 sequence (P01887 21-119 partner)

Chain of L^d molecules complexed with QL9 peptide, on the cell surface (mouse) (P01897 25-362, one chain of several): as the sequence (P01897 25-362, one chain of several) above
Chain of recombinant biotinylated L^d immobilized on an avidin-coated support, with QL9 peptide (mouse) (P01897 25-309): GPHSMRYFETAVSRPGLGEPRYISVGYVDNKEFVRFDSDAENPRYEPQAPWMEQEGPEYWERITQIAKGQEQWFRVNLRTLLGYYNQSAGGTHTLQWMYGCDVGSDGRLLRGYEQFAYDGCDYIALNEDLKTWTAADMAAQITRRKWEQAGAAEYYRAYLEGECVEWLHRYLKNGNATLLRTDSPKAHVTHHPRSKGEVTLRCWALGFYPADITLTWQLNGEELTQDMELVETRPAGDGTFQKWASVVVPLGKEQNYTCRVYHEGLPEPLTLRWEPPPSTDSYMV

2C T-cell receptor on T-cells of 2C TCR transgenic mice
percent of the lymphocytes included in rosettes [1]: 30% and 40%
percent of the lymphocytes included in rosettes [2]: 30% and 40%
Proliferation (Day 3), ^3HTdR incorporation; fly cells expressing L^d [3]: 200 cpm
Proliferation (Day 3), ^3HTdR incorporation; fly cells expressing L^d + B7.1 [3]: 60900 cpm
Proliferation (Day 3), ^3HTdR incorporation; fly cells expressing L^d + ICAM-1 [3]: 73900 cpm
Proliferation (Day 3), ^3HTdR incorporation; fly cells expressing L^d [4]: 200 cpm
Proliferation (Day 3), ^3HTdR incorporation; fly cells expressing L^d + B7.1 [4]: 300 cpm
Proliferation (Day 3), ^3HTdR incorporation; fly cells expressing L^d + ICAM-1 [4]: 1500 cpm

EQLESIINFEKLTEWTSSNVMEER [OVA-24]
affinity lower than that of OVA-8 [5]: more than 10,000 fold
T-cell recognition (IL-2 response) of K^b Drosophila cells [6]: responded well

FRIGCRHSR [HIV Vpr peptide]
thermostabilization of HLA B27 surface expression [7]: stabilizes B27

ILKEPVHGV [HIV POL peptide]
thermostabilization of HLA B27 surface expression [7]: not B27

LSPFPFDL [p2Ca]
Proliferation (Day 3) ^3HTdR incorporation, fly cells expressing L^d ([8]; APC L^d): 0.2 cpm × 10^3
Proliferation (Day 3) ^3HTdR incorporation, fly cells expressing L^d + B7.1 ([8]; APC L^d + B7.1): 0.3 cpm × 10^3
Proliferation (Day 3) ^3HTdR incorporation, fly cells expressing L^d + B7.1 + ICAM-1 ([8]; APC L^d + B7.1 + ICAM-1): 142.0 cpm × 10^3
Proliferation (Day 3) ^3HTdR incorporation, fly cells expressing L^d + ICAM-1 ([8]; APC L^d + ICAM-1): 1.5 cpm × 10^3
Proliferation (Day 3) ^3HTdR incorporation, L^d + B7.1 combined with L^d + ICAM-1 ([8]; mixture of two APC lines): 1.5 cpm × 10^3
IL-2 Production (Day 2) ^3HTdR incorporation, fly cells expressing L^d ([9]; APC L^d): 0.2 cpm × 10^3
IL-2 Production (Day 2) ^3HTdR incorporation, fly cells expressing L^d + B7.1 ([9]; APC L^d + B7.1): 0.2 cpm × 10^3
IL-2 Production (Day 2) ^3HTdR incorporation, fly cells expressing L^d + B7.1 + ICAM-1 ([9]; APC L^d + B7.1 + ICAM-1): 64.6 cpm × 10^3
IL-2 Production (Day 2) ^3HTdR incorporation, fly cells expressing L^d + ICAM-1 ([9]; APC L^d + ICAM-1): 0.1 cpm × 10^3
IL-2 Production (Day 2) ^3HTdR incorporation, L^d + B7.1 combined with L^d + ICAM-1 ([9]; mixture of two APC lines): 0.3 cpm × 10^3
induction of CD69 and CD25 expression [10]: barely detectable
proliferation of 2C CD8+ cells ([11]; Drosophila cells with L^d alone, no exogenous lymphokines): failed
peptide concentration required for optimal day 3 proliferative response ([11]; L^d.B7.1CAM APC, no IL-2): 10 µM
activation (mitogenesis) of 2C+ T-cells [12]: able to activate
enrichment in specific T-cells after 12 days ([13]; start 1/99): 49 times
cells expressing the 2C T-cell receptor (2C+) at day 12 ([13]; start 1/99 2C+/total CD8+, immobilized L^d and anti-CD28, IL-2 from day 2): 49%

ovalbumin protein: ovalbumin (Sigma Chem. Co.) osmotically loaded into the cells (EQLESIINFEKLTEWTSSNVMEER)
T-cell recognition (IL-2 response) of K^b Drosophila cells [6]: no recognition

B1: [^125I]VSV-8 (radioiodinated VSV-8 peptide) (peptide)
peptide: RGYVYQGL
modifications: not checked
percent of the total labeled peptide able to bind [14]: 65%
